This is an account of results in patent publication US20090149482A1, “STEREOCHEMICALLY DEFINED DIPEPTIDE ESTERS OF ANTIVIRAL AGENTS FOR ENHANCED OCULAR TREATMENT” (priority 2001, published 2009).

Structures are written as SMILES. “And” between values parts separate entries of the source, which are not always exact repeats. Equal values may be shown once. Read-outs that look alike come from different tables or passages of the source.

Broadly, the Ki is a dissociation constant, usually derived from enzyme kinetics or from competition with a known ligand. What is called half-life is the time needed for the level to fall by half in the phase considered. The low end stands for fast loss, the high end for slow loss. Usually IC50 stands for the concentration at which inhibition is half-maximal.

The target of one data set is T1, hPEPT1 (Homo sapiens, UniProt P46059).
T1 construct: endogenous in cells; host or cells: Caco-2 (human colon carcinoma, ATCC)
T1 sequence (P46059 1-708): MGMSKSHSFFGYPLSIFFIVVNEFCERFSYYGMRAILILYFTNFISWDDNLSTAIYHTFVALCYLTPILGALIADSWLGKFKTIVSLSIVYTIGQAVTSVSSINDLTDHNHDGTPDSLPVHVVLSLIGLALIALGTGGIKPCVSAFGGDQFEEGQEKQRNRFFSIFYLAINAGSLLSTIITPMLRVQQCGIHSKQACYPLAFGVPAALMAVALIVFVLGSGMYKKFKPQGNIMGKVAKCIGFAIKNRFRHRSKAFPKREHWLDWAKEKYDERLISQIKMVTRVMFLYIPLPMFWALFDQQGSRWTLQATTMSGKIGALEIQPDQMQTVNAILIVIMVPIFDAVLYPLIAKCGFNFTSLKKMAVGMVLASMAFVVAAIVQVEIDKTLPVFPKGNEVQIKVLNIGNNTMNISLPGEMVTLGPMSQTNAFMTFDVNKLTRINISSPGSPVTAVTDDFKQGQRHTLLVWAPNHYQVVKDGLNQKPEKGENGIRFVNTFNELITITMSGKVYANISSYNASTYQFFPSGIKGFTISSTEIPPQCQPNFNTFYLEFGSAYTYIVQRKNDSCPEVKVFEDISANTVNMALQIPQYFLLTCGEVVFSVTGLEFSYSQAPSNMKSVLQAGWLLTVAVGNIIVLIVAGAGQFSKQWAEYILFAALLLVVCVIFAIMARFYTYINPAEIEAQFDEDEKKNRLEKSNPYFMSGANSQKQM
Nature of the data set: [3H] Glycylsarcosine uptake and its inhibition in Caco-2 cells (affinity towards peptide transporter). The class given is cell-based. (In general: Caco-2 cells form a polarised layer with tight junctions and transporters.)

A short description of another data set: in vitro. The following applies: male, New Zealand albino, rabbit, tissue homogenate.
In another data set the test system is HSV-1 strain RE. Nature of the data set: HSV-1 stromal keratitis rabbit model, topical treatment, SLE scores. Format: in vivo. Particulars: 13 days post-inoculation, 1% topical. From the text:
The rabbit eye is an excellent model to study acute HSV-1 epithelial keratitis. Also, spontaneous and induced ocular HSV-1 shedding and corneal epithelial disease in rabbits has been used as a model of human ocular HSV-1 reactivation and recurrence. HSV-1 strain McKrae was used in studies for epithelial keratitis. HSV-1 strain RE was used for studies of HSV stromal keratitis.
ii) Stromal Keratitis: The experiment is similar to the part (i) experiment as far as the treatment cycles for all experimental drugs (TFT and Val-Val-ACV) are concerned. The effect of Val-Val-ACV on stromal keratitis induced by intrastromal injection with a high (20 μl of a 1×10^7 pfu/ml stock) titer of HSV-1RE strain was compared to that of TFT. Each compound at 1% concentration (TFT=33 mM, Val-Val-ACV=18.6 mM) was applied topically. The same scoring as noted in Table 4 is used for stromal keratitis. Emphasis is placed on the stromal edema and visibility into the aqueous chamber and the visualization of the pupil and iris.
A group of ten rabbits were used to study each compound. Both eyes of all rabbits were treated. Three to four groups of 10 rabbits are used in one experiment. This includes vehicle control, TFT, and the newly synthesized antiviral Val-Val-ACV.

Data set [1] concerns human fibroblast foreskin cells (HFF).

Take `CC(C)[C@H](N)C(=O)OCCOCn1cnc2c(=O)[nH]c(N)nc21` [Val-ACV, L-Valine-acyclovir]: on hPEPT1, affinity was put at a Ki of 1410 ± 560 µM and the “Vmax of Gly-Sar uptake in presence of the drug” value stood at 0.081 ± 0.09 µmol/min/mg. In addition, the half-life in the data set “in vitro” (corneal half-life, corneal tissue) is 1.42 h. For the same compound, the half-life in the data set “in vitro” (t1/2 of conversion to ACV, corneal tissue homogenate) is around 1.42 h.
Turning to `CC(C)C(N)C(=O)NC(C(=O)OCCOCn1cnc2c(=O)[nH]c(N)nc21)C(C)C` (stereo not drawn) [Val-Val-ACV, Val-Valacyclovir], the “Concentration required to achieve an SLE Score of 0.2” value in the data set on HSV-1 strain RE came to 18.6 mM. Also, the “Vmax of Gly-Sar uptake in presence of the drug” value on hPEPT1 stood at 0.099 ± 0.10 µmol/min/mg. Further, at hPEPT1 (read-out: IC50 of inhibition of [3H] Gly-Sar uptake), the IC50 came to 3460 ± 210 µM. Moreover, at hPEPT1 (read-out: Ki), the Ki is 1940 µM and 1890 µM and 2510 µM. Besides, the CC50 in data set [1] (EBV column) was above 93.1 µM; in data set [1] (HCMV column) it was above 186 µM; in data set [1] (HSV-2 column), above 186 µM; in data set [1] (VZV column) it was above 186 µM; in data set [1] (read-out: CC50 (concentration required to inhibit cell proliferation by 50%), HSV-1), above 186 µM.
